Where “and” joins values, the source holds several entries; their conditions need not be identical. Identical values can stand only once. Like-named read-outs stand apart in the source and are kept apart here. Values belong to the compound of their own block, whether it stands above or below them. Bridge positions count the residues as written; N and C are the ends. Square brackets hold non-standard residues; d marks the D form. Peptide text beside a SMILES is read from it. Dab = NCC[C@H](N)C(=O)O
Tests used:
E. coli BW25113 [1] = test: Checkerboard assay with erythromycin; format: cell-based, Escherichia coli; details: for MSCery: erythromycin concentration in the combination with the synergist giving the lowest FICi, E. coli BW25113; for MIC of the peptide (MICpep): synergist alone, from checkerboard with erythromycin; for MIC of the peptide (MICpep) / MSCpeptide, minimum synergistic concentration: E. coli BW25113, LB, 20 h 37 °C; for MSCpeptide, minimum synergistic concentration: synergist concentration in the combination with erythromycin giving the lowest FICi, OD600
Protocol: (§1) All peptides were screened for antimicrobial activity against E. coli BW25113, E. coli ATCC25922, and E. coli W3110. A select group of the peptides was further tested against E. coli mcr-1, E. coli EQASmcr-1 (EQAS 2016 412016126), E. coli EQASmcr-2 (EQAS 2016 KP37), E. coli EQASmcr-3 (EQAS 2017 2013-SQ352), K. pneumoniae ATCC13883, P. aeruginosa ATCC27853, and A. baumannii ATCC17978. The antimicrobial assay was performed according to CLSI guidelines. Bacteria were plated out directly from their glycerol stocks on blood agar plates, incubated overnight at 37 °C, and then kept in the fridge. The blood agar plates were only used for 2 weeks and then replaced.
(§2) One colony from a blood agar plates was inoculated in Lysogeny Broth (LB) at 37 °C until a 0.5 optical density at 600 nm (OD600) was reached (compared to the sterility control of LB). The bacterial suspension was diluted in fresh LB to 2.0 × 10^6 CFU/mL. The serial dilutions were prepared in polypropylene microtiter plates: a stock of the test compounds was prepared with a 2x final concentration in LB. Moreover, 100 µL of the stock was added to the wells of the top row of which 50 µL was used for the serial dilution. The bottom row of each plate was used as the positive (50 µL of LB) and negative controls (100 µL of LB) (6 wells each). Furthermore, 50 µL of the 2.0 × 10^6 CFU/mL bacterial stock was added to each well except for the negative controls, adding up to a total volume of 100 µL per well. The plates were sealed with a breathable seal and incubated for 20 h at 37 °C and 600 rpm.
(§3) Two 96-well plates were required per compound. A serial dilution of the compound was performed on two plates from row A–G using with LB as medium. Row H was filled with 25 µL medium. On a separate plate a negative control (8 wells, 100 μL medium) was prepared. For all concentrations of antibiotic a specific stock was prepared. 25 µL medium was added to the 0 µg/mL antibiotic columns (plate I, column 1–3). Of each antibiotic stock 25 µL was added to three columns to obtain triplicates for every condition. Both plates contained 50 µL in each well to which 50 µL bacterial stock was added (see the protocol of the MIC assays) and the plates were sealed. After incubation for 20 h at 37 °C while shaking, the breathable seals were removed and the density of the bacterial suspensions measured at 600 nm (OD600) using a Tecan Spark plate reader. The OD600 values were transformed to a 2D gradient with the negative control as minimum and the positive control (wells G1, G2, and G3) as maximum in excel. The FICi was calculated using Equation (1) with a FICi ≤ 0.5 indicating synergy. FICi = (MSCa/MICa) + (MSCb/MICb),(1)
(§4) Calculation of the FICi: MSCa = concentration of the […] in combination with the antibiotic that results in the lowest FICi. MICa = MIC of the antibiotic without synergist (row G). MSCb = concentration of the synergist in combination with the antibiotic that results in the lowest FICi. MICb = MIC of the synergist itself (Column 1–3, plate I).

E. coli BW25113 [2] = test: microbe, parasite or virus in culture; format: cell-based, Escherichia coli
Protocol: as §1, §2, §3, §4

E. coli BW25113 [3] = format: cell-based, Escherichia coli; details: for MICpep: synergist alone, E. coli BW25113, from checkerboard with rifampicin; for MSCpep: synergist concentration in the combination with rifampicin giving the lowest FICi
Protocol: as §1, §2, §3, §4

E. coli BW25113 [4] = test: Membrane permeability assay using N-phenylnaphthalen-1-amine (NPN); format: cell-based, Escherichia coli; details: at […]; 60 min incubation, λex 355 nm, λem 420 nm, relative to 100 µg/mL colistin; n = 3 technical replicates
Protocol: Figure 7 Permeabilization assay of E. coli BW25113 using N-Phenyl-1-naphthylamine as fluorescent probe. The read-out was performed after 60 min of incubation using a plate reader with λex 355 nm and λem 420 nm. The N-phenyl-napthalen-1-amine (NPN) uptake values shown are relative to the uptake signal obtained upon treating the cells with 100 µg/mL colistin as previously reported. Error bars represent the standard deviation based on n = 3 technical replicates. A read-out was also performed after 10 min of incubation (see Supplementary data, Figure S16).
This assay was adapted from a protocol described in literature. Bacteria were inoculated overnight at 37 °C in LB, diluted the next day 50× in LB and grown to OD600 of 0.5. The bacterial suspension was then centrifuged for 10 min at 1000× g at 25 °C. The pellet of bacteria was resuspended in 5 mM HEPES buffer containing 20mM glucose to a final concentration of OD600 of 1.0. […] After 10 and 60 min, the plate was measured using Tecan plate reader with λex 355 nm ±20 nm and λem 420 nm ± 20 nm. The fluorescence values obtained were then transformed into a NPN uptake percentage using the following Equation (2):NPN uptake (%) = (Fobs − F0)/(F100 − F0) × 100%,(2)
Equation (2) consists of an observed value of fluorescence (Fobs), which is corrected for background using the negative control (F0). […]

E. coli BW25113 [5] = test: microbe, parasite or virus in culture; format: cell-based, Escherichia coli; remark: listed apart in the source
Protocol: as §1, §2, §3, §4

K. pneumoniae ATCC13883 = test: Checkerboard assay with rifampicin; format: cell-based, Klebsiella pneumoniae
Protocol: as §1, §2, §3, §4

E. coli ATCC25922 = format: cell-based, Escherichia coli; details: rifampicin without synergist; E. coli ATCC25922
Protocol: as §1, §2, §3, §4

E. coli mcr-1 = format: cell-based, Escherichia coli; details: rifampicin without synergist; E. coli mcr-1
Protocol: as §1, §2, §3, §4

P. aeruginosa ATCC27853 = test: Checkerboard assay with rifampicin; format: cell-based, Pseudomonas aeruginosa
Protocol: as §1, §2, §3, §4

A. baumannii ATCC17978 = test: microbe, parasite or virus in culture; format: cell-based, Acinetobacter baumannii
Protocol: as §1, §2, §3, §4

[6] = test system: defibrinated sheep blood (red blood cells); test: Hemolysis assay; format: cell-based; details: 200 µg/mL compound, 20 h incubation at 37 °C with defibrinated sheep blood, PBS 0.002% Tween20, absorbance 415 nm, relative to 0.1% Triton X-100; n=3 technical replicates
Protocol: Defibrinated sheep blood (Thermo Fisher Scientific) and a phosphate-buffered saline (PBS) buffer containing 0.002% Tween20 were used in this assay. The red blood cells were washed with buffer followed by centrifugation (400 g for 15 min at 4 °C). The red blood cells were then normalized to obtain a positive control read-out around 2.5 at 415 nm to stay in the linear range with the maximum sensitivity. A serial dilution of the compounds (200–1.56 µg/mL, 75 µL) was prepared in a 96-well plate. Each plate contained a positive control (0.1% Triton X-100 final concentration, 75 µL) and the negative control (buffer, 75 µL). After addition of normalized blood cells (75 µL), the plates were incubated for 20 h at 37 °C at 500 rpm. The plates were centrifuged (800× g for 5 min at room temperature). For the next step flat-bottom polystyrene plates were prepared with 100 µL buffer in each well. Aliquots of 25 µL supernatant from the centrifuged plates were then transferred to their respective wells in the flat-bottom plate. Absorbance values where measured at 415 nm and corrected for background (negative control) and transformed to a percentage hemolysis relative to the positive control.

SMILES: CC(C)C[C@@H]1NC(=O)[C@@H](Cc2ccccc2)NC(=O)[C@H](CCN)NC(=O)[C@@H](NC(=O)[C@H](CCN)NC(=O)[C@@H](N)[C@@H](C)O)CCNC(=O)[C@H]([C@@H](C)O)NC(=O)[C@H](CCN)NC(=O)[C@H](CCN)NC1=O [PMBN, polymyxin B nonapeptide, reference compound] (H-T[Dab][Dab][Dab][dF]L[Dab][Dab]T; lactam 3-C (inferred); N-terminus assumed)
FICi (E. coli BW25113 [1]; BW25113, 20 h): 0.125
MSCery (E. coli BW25113 [1]): 12.5 µg/mL
MIC of the peptide (MICpep) (E. coli BW25113 [1]): > 200 µg/mL
MSCpeptide, minimum synergistic concentration (E. coli BW25113 [1]): 25 µg/mL
MSCnovo (E. coli BW25113 [2]; novobiocin concentration in the combination giving the lowest FICi, E. coli BW25113): 6.25 µg/mL
MICpeptide (E. coli BW25113 [2]; synergist alone, E. coli BW25113, from checkerboard with novobiocin): > 200 µg/mL
MSCpeptide (E. coli BW25113 [2]; synergist concentration in the combination with novobiocin giving the lowest FICi, E. coli BW25113): 12.5 µg/mL
MSCrif (E. coli BW25113 [3]; rifampicin concentration in the combination giving the lowest FICi, E. coli BW25113): 0.25 µg/mL
MICpep (E. coli BW25113 [3]): > 200 µg/mL
MSCpep (E. coli BW25113 [3]; E. coli BW25113): 12.5 µg/mL
OM permeabilization (NPN uptake) (E. coli BW25113 [4]): ca. 80%
MICpeptide (E. coli BW25113 [5]; synergist alone, E. coli BW25113, from checkerboard with vancomycin): > 200 µg/mL
MSCpeptide (E. coli BW25113 [5]; synergist concentration in the combination with vancomycin giving the lowest FICi, E. coli BW25113): 12.5 µg/mL
MSCvanco (E. coli BW25113 [5]; vancomycin concentration in the combination giving the lowest FICi, E. coli BW25113): 50 µg/mL

SMILES: CO[C@H]1/C=C/O[C@@]2(C)Oc3c(C)c(O)c4c(O)c(c(/C=N/N5CCN(C)CC5)c(O)c4c3C2=O)NC(=O)/C(C)=C\C=C\[C@H](C)[C@H](O)[C@@H](C)[C@@H](O)[C@@H](C)[C@H](OC(C)=O)[C@@H]1C [rifampicin, reference compound]
MIC (K. pneumoniae ATCC13883; Klebsiella pneumoniae, ATCC13883, read-out: MIC of rifampicin (MICrif)): 32 µg/mL
MIC of rifampicin (MICrif) (K. pneumoniae ATCC13883; rifampicin without synergist, K. pneumoniae ATCC13883): 32 µg/mL
MICrif (E. coli ATCC25922): 4 µg/mL
MICrif (E. coli mcr-1): 12 µg/mL
MIC (P. aeruginosa ATCC27853; Pseudomonas aeruginosa, ATCC27853, read-out: MIC of rifampicin (MICrif)): 16 µg/mL
MIC of rifampicin (MICrif) (P. aeruginosa ATCC27853; rifampicin without synergist, P. aeruginosa ATCC27853): 16 µg/mL
MIC (A. baumannii ATCC17978; Acinetobacter baumannii, ATCC17978, read-out: MIC of rifampicin (MICrif)): 2 µg/mL
MIC of rifampicin (MICrif) (A. baumannii ATCC17978; rifampicin without synergist, A. baumannii ATCC17978): 2 µg/mL

SMILES: CN[C@H](CC(C)C)C(=O)N[C@H]1C(=O)N[C@@H](CC(N)=O)C(=O)N[C@H]2C(=O)N[C@H]3C(=O)N[C@H](C(=O)N[C@H](C(=O)O)c4cc(O)cc(O)c4-c4cc3ccc4O)[C@H](O)c3ccc(c(Cl)c3)Oc3cc2cc(c3O[C@@H]2O[C@H](CO)[C@@H](O)[C@H](O)[C@H]2O[C@H]2C[C@](C)(N)[C@H](O)[C@H](C)O2)Oc2ccc(cc2Cl)[C@H]1O [vancomycin, reference compound]
MIC (E. coli BW25113 [5]; Escherichia coli, BW25113, read-out: MIC of vancomycin (MICvanco)): > 200 µg/mL
MIC of vancomycin (MICvanco) (E. coli BW25113 [5]; antibiotic without synergist, E. coli BW25113): > 200 µg/mL

MIC of the peptide (MICpep) (E. coli BW25113 [1]): 25 µg/mL
MICpep (E. coli BW25113 [3]): 25 µg/mL
SMILES: CC[C@H](C)[C@H](NC(=O)[C@@H](NC(=O)[C@H](CCCCN)NC(=O)[C@H](C)NC(=O)[C@@H](NC(=O)[C@H](Cc1c[nH]c2ccccc12)NC(=O)[C@H](CCCCN)NC(=O)[C@H](CCCCN)NC(=O)[C@H](CC(C)C)NC(=O)[C@H](CCCNC(=N)N)NC(=O)[C@H](Cc1ccccc1)NC(=O)[C@@H](N)C(C)C)[C@@H](C)CC)C(C)C)C(N)=O [compound 16] (H-VFRLKKWIAKVI-NH2)
MSCery (E. coli BW25113 [1]): 12.5 µg/mL
MSCpeptide, minimum synergistic concentration (E. coli BW25113 [1]): 3.125 µg/mL
Hemolysis [6]: 3.5% and 4%
FICi (E. coli BW25113 [3]; BW25113, 20 h): 0.2656
MSCpep (E. coli BW25113 [3]; E. coli BW25113): 6.25 µg/mL
